Values of other authors as cited in patent US12702690B2, “Cannabinoid compositions and dosage forms for intranasal or inhalational delivery” (RHODES TECHNOLOGIES, priority 2020, dated 2026).

How the values were obtained:
[1] = background statement
[2] = following ingestion; Sharma et al. 2012

For `CCCCCc1cc(O)c2c(c1)OC(C)(C)C1CCC(C)=CC21` (single isomer, unassigned; (-)) [Dronabinol, (−)-trans-Δ^9-tetrahydrocannabinol], the solubility in water [1] is listed as “insoluble in water” and the “time at which systemic absorption peaks” value [2] is listed as 1 to 2 h.
